From the NIST ThermoML archive (doi:10.1016/j.jct.2004.07.027)

Assay: mn = molality of the nth substance listed, in mol/kg
Details: 350 kPa, Liquid, Extra sensitive DSC

C1COCCOCCOCCOCCOCCO1 [1,4,7,10,13,16-hexaoxacyclooctadecane] + O
Details	apparent molar heat capacity [J/K/mol]
338.15 K, m1 = 0.01001	925.2
338.15 K, m1 = 0.02001	920.5
338.15 K, m1 = 0.03002	920.9
338.15 K, m1 = 0.0401	927.9
338.15 K, m1 = 0.04995	928.1
338.15 K, m1 = 0.06015	927.8
338.15 K, m1 = 0.08002	927.2
338.15 K, m1 = 0.1224	926.44
338.15 K, m1 = 0.1472	926.89
338.15 K, m1 = 0.1935	925.61
338.15 K, m1 = 0.2925	924.48
343.15 K, m1 = 0.01001	932.5
343.15 K, m1 = 0.02001	929.1
343.15 K, m1 = 0.03002	929.3
343.15 K, m1 = 0.0401	936.1
343.15 K, m1 = 0.04995	936.3
343.15 K, m1 = 0.06015	936.3
343.15 K, m1 = 0.08002	935.5
343.15 K, m1 = 0.1224	934.88
343.15 K, m1 = 0.1472	935.27
343.15 K, m1 = 0.1935	934.03
343.15 K, m1 = 0.2925	932.93
348.15 K, m1 = 0.01001	939.9
348.15 K, m1 = 0.02001	936.3
348.15 K, m1 = 0.03002	936.4
348.15 K, m1 = 0.0401	942.7
348.15 K, m1 = 0.04995	943.1
348.15 K, m1 = 0.06015	943.5
348.15 K, m1 = 0.08002	942.4
348.15 K, m1 = 0.1224	941.88
348.15 K, m1 = 0.1472	942.17
348.15 K, m1 = 0.1935	941.03
348.15 K, m1 = 0.2925	939.88
353.15 K, m1 = 0.01001	946.2
353.15 K, m1 = 0.02001	942
353.15 K, m1 = 0.03002	942.4
353.15 K, m1 = 0.0401	949
353.15 K, m1 = 0.04995	949.2
353.15 K, m1 = 0.06015	949
353.15 K, m1 = 0.08002	948.1
353.15 K, m1 = 0.1224	947.6
353.15 K, m1 = 0.1472	947.8
353.15 K, m1 = 0.1935	946.84
353.15 K, m1 = 0.2925	945.53
358.15 K, m1 = 0.01001	951.4
358.15 K, m1 = 0.02001	946.9
358.15 K, m1 = 0.03002	947.4
358.15 K, m1 = 0.0401	954.1
358.15 K, m1 = 0.04995	954
358.15 K, m1 = 0.06015	953.6
358.15 K, m1 = 0.08002	952.9
358.15 K, m1 = 0.1224	952.29
358.15 K, m1 = 0.1472	952.42
358.15 K, m1 = 0.1935	951.41
358.15 K, m1 = 0.2925	949.82
363.15 K, m1 = 0.01001	956.3
363.15 K, m1 = 0.02001	950.6
363.15 K, m1 = 0.03002	951.5
363.15 K, m1 = 0.0401	957.7
363.15 K, m1 = 0.04995	957.7
363.15 K, m1 = 0.06015	957.3
363.15 K, m1 = 0.08002	956.5
363.15 K, m1 = 0.1224	955.71
363.15 K, m1 = 0.1472	955.85
363.15 K, m1 = 0.1935	954.72
363.15 K, m1 = 0.2925	952.93
368.15 K, m1 = 0.01001	958.6
368.15 K, m1 = 0.02001	953.5
368.15 K, m1 = 0.03002	954.4
368.15 K, m1 = 0.0401	959.7
368.15 K, m1 = 0.04995	960.2
368.15 K, m1 = 0.06015	959.9
368.15 K, m1 = 0.08002	959.2
368.15 K, m1 = 0.1224	958.26
368.15 K, m1 = 0.1472	958.12
368.15 K, m1 = 0.1935	957
368.15 K, m1 = 0.2925	954.88
373.15 K, m1 = 0.01001	959.1
373.15 K, m1 = 0.02001	955.6
373.15 K, m1 = 0.03002	955.9
373.15 K, m1 = 0.0401	960.6
373.15 K, m1 = 0.04995	961.7
373.15 K, m1 = 0.06015	961.5
373.15 K, m1 = 0.08002	960.8
373.15 K, m1 = 0.1224	959.82
373.15 K, m1 = 0.1472	959.52
373.15 K, m1 = 0.1935	958.21
373.15 K, m1 = 0.2925	955.86
378.15 K, m1 = 0.01001	960.1
378.15 K, m1 = 0.02001	955.9
378.15 K, m1 = 0.03002	957.7
378.15 K, m1 = 0.0401	960.8
378.15 K, m1 = 0.04995	962.6
378.15 K, m1 = 0.06015	962.6
378.15 K, m1 = 0.08002	961.5
378.15 K, m1 = 0.1224	960.5
378.15 K, m1 = 0.1472	960.13
378.15 K, m1 = 0.1935	958.64
378.15 K, m1 = 0.2925	956.01
383.15 K, m1 = 0.01001	960.3
383.15 K, m1 = 0.02001	956.3
383.15 K, m1 = 0.03002	959.2
383.15 K, m1 = 0.0401	959.6
383.15 K, m1 = 0.04995	962.7
383.15 K, m1 = 0.06015	962.5
383.15 K, m1 = 0.08002	961.5
383.15 K, m1 = 0.1224	960.35
383.15 K, m1 = 0.1472	959.95
383.15 K, m1 = 0.1935	958.25
383.15 K, m1 = 0.2925	955.31
388.15 K, m1 = 0.01001	958.8
388.15 K, m1 = 0.02001	955.7
388.15 K, m1 = 0.03002	959.9
388.15 K, m1 = 0.0401	956.7
388.15 K, m1 = 0.04995	962.3
388.15 K, m1 = 0.06015	961.8
388.15 K, m1 = 0.08002	960.8
388.15 K, m1 = 0.1224	959.65
388.15 K, m1 = 0.1472	959.06
388.15 K, m1 = 0.1935	957.22
388.15 K, m1 = 0.2925	954.17
393.15 K, m1 = 0.01001	958.8
393.15 K, m1 = 0.02001	954.7
393.15 K, m1 = 0.03002	967.1
393.15 K, m1 = 0.0401	951.9
393.15 K, m1 = 0.04995	961.7
393.15 K, m1 = 0.06015	961.2
393.15 K, m1 = 0.08002	960.2
393.15 K, m1 = 0.1224	958.56
393.15 K, m1 = 0.1472	957.61
393.15 K, m1 = 0.1935	955.72
393.15 K, m1 = 0.2925	952.32
